From US11897901B1, “6-amino-8,9-di(4-methoxyphenyl)-2-oxo-3,9-dihydro-2H-[1,3]thiazolo[5′,4′:5,6]pyrano[2,3-b]pyridine-7-carbonitrile as anticancer compound” (KING FAISAL UNIVERSITY, priority 2023, dated 2024)

What was measured:
[1] = system: human prostate cancer cells (PC3); assay: Assessment of cytotoxicity by SRB assay, PC3 cells; assay type: cell-based; conditions: 0.01 μM to 100 μM, 72 h
Experimental: (§1) The human prostate cancer cells (PC3) and human osteosarcoma cells (MG-63) were obtained from Nawah Scientific Inc. (Mokatam, Cairo, Egypt) and cultured in DMEM (Dulbecco's modified eagle's medium), Gibco, USA, supplemented with fetal bovine serum (FBS) at a concentration of 10% and 100 U/mL of penicillin and streptomycin (PS). The Cells were incubated at 37° C. in a humidified environment that contained 5% CO2.
(§2) Cells were seeded in 96-well plates as aliquots of 100 μL cell suspension and incubated in a complete media for 24 h. Afterward, cells were treated with 6-amino-8,9-di(4-methoxyphenyl)-2-oxo-3,9-dihydro-2H-[1,3]thiazolo[5′,4′:5,6]pyrano[2,3-b]pyridine-7-carbonitrile (2) at diverse concentrations ranging from 0.01 μM to 100 μM for 72 h. Then, cells were fixed at 4° C. for one hour with 150 μL of 10% trichloroacetic acid (TCA). After washing the cells five times with distilled water, 70 μL of sulforhodamine (SRB) solution (0.4% w/v) was added and incubated for 10 min at room temperature in a dark place. […] Then, 150 μL of Tris pH 10.5 (10 mM) was added, and the absorbance was measured at 540 nm using a BMG LABTECH®-FLUOstar Omega microplate reader (Ortenberg, Germany). Half maximal inhibitory concentration (IC50) values were calculated for each experiment using GraphPad Prism 6 software. […]
(§3) The inhibition was calculated using the following equation: Inhibition %=100−Average Viability

[2] = system: human osteosarcoma cells (MG-63); assay: Assessment of cytotoxicity by SRB assay, MG-63 cells; assay type: cell-based; conditions: 0.01 μM to 100 μM, 72 h
Experimental: as §1, §2, §3

- melting point: 234 to 236 °C
Compound: COc1ccc(-c2c(C#N)c(N)nc3c2C(c2ccc(OC)cc2)c2sc(=O)[nH]c2O3)cc1 (stereo not drawn) [Compound 2, 6-amino-8,9-di(4-methoxyphenyl)-2-oxo-3,9-dihydro-2H-[1,3]thiazolo[5′,4′:5,6]pyrano[2,3-b]pyridine-7-carbonitrile]
- antiproliferative activities against cancer cells (PC3) [1]: excellent antiproliferative activities
- antiproliferative activities against osteosarcoma (MG-63) cells [2]: excellent antiproliferative activities
